One block for each compound: values may come before it.
Legend:
Assay type in all cases: physicochemical
[1] = Slurry experiment (ageing in solvents, XRPD analysis)
Method: (§1) XRPD measurements were performed with the X-ray powder diffractometer Bruker D8 Advance at room temperature using copper filled X-ray tube (40 kV×40 mA) as the X-ray source, CuKα (λ=1.5418 Å), a fixed 0.6 mm divergence slit, 0.0125 mm Ni filter and a 2.5° primary Soller slit, and a LynxEye 1-dimensional detector with a 2.5° secondary Soller slit. Data collection was done in 0.02° steps at a scan speed of 0.3°/s, in the range of 3-33° 2θ.
Samples of 20 mg of crystalline form 5 (water content 0.3-0.6) of compound (I) were dispensed in 300 μl of various solvents defined in Table 13 at room temperature (RT) or at 40° C. under magnetic stirring (600-1000 rpm). The resulting suspensions were aged for 1 week at the respective temperatures. After the ageing period the samples were recovered, air-dried at RT and analyzed by XRPD.

[2] = Storage at room temperature in a closed container, re-analysis by XRPD; settings: two weeks
Method: as §1
Crystalline form 4 of compound (I) was stored at room temperature in a closed container.

[3] = Grinding with water in a ball mill, XRPD analysis; settings: 25-30 mg ground with 80 μl of water, Retsch ball mill, 1.5 h, 30 Hz
Method: as §1
25-30 mg of crystalline form 3 of compound (I) was ground with 80 μl of water using a Retsch ball mill. Water addition was done in two steps, with total grinding time of 1.5 h and v=30 Hz.

- solid form after ageing of the suspension (XRPD) ([1]; 20 mg in 300 μl of the solvents of Table 13, RT or 40° C., magnetic stirring, aged for 1 week): crystalline form 5 (water content 0.3)
SMILES: CS(=O)(=O)N1CCC(COc2coc(CN3Cc4ccccc4C3)cc2=O)CC1 [2-(isoindolin-2-ylmethyl)-5-((1-(methylsulfonyl)piperidin-4-yl)methoxy)-4H-pyran-4-one]

SMILES: CS(=O)(=O)N1CCC(COc2coc(CN3Cc4ccccc4C3)cc2=O)CC1 [Crystalline form 4, 2-(isoindolin-2-ylmethyl)-5-((1-(methylsulfonyl)piperidin-4-yl)methoxy)-4H-pyran-4-one]
- solid form after storage (XRPD) [2]: mixture of crystalline form 4 and crystalline form 3

- solid form after grinding with water (XRPD) [3]: crystalline form 2
SMILES: CS(=O)(=O)N1CCC(COc2coc(CN3Cc4ccccc4C3)cc2=O)CC1 [crystalline form 3, 2-(isoindolin-2-ylmethyl)-5-((1-(methylsulfonyl)piperidin-4-yl)methoxy)-4H-pyran-4-one]

SMILES: CS(=O)(=O)N1CCC(COc2coc(CN3Cc4ccccc4C3)cc2=O)CC1 [form 5, 2-(isoindolin-2-ylmethyl)-5-((1-(methylsulfonyl)piperidin-4-yl)methoxy)-4H-pyran-4-one]
- solid form stability in slurry ([1]; suspensions in the solvents of Table 13, 1 week, RT or 40° C.): stable in conditions with lower water activity

Source: patent US20240158378A1, “SOLID FORMS OF A 4H-PYRAN-4-ONE STRUCTURED CYP11A1 INHIBITOR” (Orion Corporation, priority 2021, published 2024)
